Series [1] is described as follows: RP-TLC chromatographic parameter of lipophilicity (RMW), Soczewiński–Wachtmeister extrapolation. In kind it is physicochemical. The arrangement: key: RM = log((1−Rf)/Rf), extrapolated via Soczewiński–Wachtmeister equation. The text has this:
As part of the continuation of this study, we attempted to use the experimental, i.e., chromatographic method to determine the lipophilicity parameter of five commercially available neuroleptics: fluphenazine, triflupromazine, trifluoperazine, flupentixol and zuclopenthixol. As described in the Materials and Methods Section, we successfully applied thin-layer chromatography in a reverse-phase system (RP-TLC) and various systems containing chromatographic plates: RP-2F254, RP-8F254 and RP-18F254. […] The chromatographic parameter of lipophilicity RMW obtained under these conditions, using Soczewiński-Wachtmeister's equation, is presented in Table 5. […] Sufficient linearity of these relationships was confirmed by a high correlation coefficient (r), significant p-values, a low standard error of estimate and a high Fisher F-distribution value. […] The content of organic modifier varied from 40% to 90% in 5% increments. Five microliters of each sample solution was spotted as separate spots with a 5 mm width. Plates were developed at ambient temperature (20 ± 2 °C) to a distance of 70 mm in a horizontal chamber ([…], Switzerland) and then visualized under UV light (λ = 254 nm). All measurements were performed in triplicate. The mean value of the retardation factor (Rf) of each compound was used to calculate the RM values:(1) […] The characteristic of the obtained linear plots are given in the Supplementary Materials as Tables S2-S6.

On the set-up of series [2]: method as in earlier work. To be noted: logP in n-octanol-water, DrugBank; cited from earlier work.
Setting [3] is: RP-2F254 plates, 1,4-dioxane–TRIS buffer (pH 7.4).
The mark [4] stands for this setting: RP-2F254 plates, acetone–TRIS buffer (pH 7.4).
The mark [5] stands for this setting: RP-2F254 plates, acetonitrile–TRIS buffer (pH 7.4).
The mark [6] stands for this setting: RP-8F254 plates, 1,4-dioxane–TRIS buffer (pH 7.4).
[7] abbreviates: RP-8F254 plates, acetone–TRIS buffer (pH 7.4).
[8] abbreviates: RP-8F254 plates, acetonitrile–TRIS buffer (pH 7.4).
[9] abbreviates: RP-18F254 plates, 1,4-dioxane–TRIS buffer (pH 7.4).
[10] abbreviates: RP-18F254 plates, acetone–TRIS buffer (pH 7.4).
Where [11] appears, read: RP-18F254 plates, acetonitrile–TRIS buffer (pH 7.4).

Regarding `OCCN1CCN(CC/C=C2/c3ccccc3Sc3ccc(C(F)(F)F)cc32)CC1` [Flupentixol, flupentixol], the RMW is reported as 2.782 in series [1] (setting [3]); 2.782±0.094 in series [1] (RP-2F254 plates, 1,4-dioxane–TRIS buffer (pH 7.4), listed as flupentixol); 2.829 in series [1] (setting [4]); 2.829±0.194 in series [1] (RP-2F254 plates, acetone–TRIS buffer (pH 7.4), listed as flupentixol); −0.427 in series [1] (setting [5]); -0.427±0.153 in series [1] (RP-2F254 plates, acetonitrile–TRIS buffer (pH 7.4), listed as flupentixol). Moreover, the RMW in series [1] (setting [6]) is 2.363; in series [1] (RP-8F254 plates, 1,4-dioxane–TRIS buffer (pH 7.4), listed as flupentixol), 2.363±0.214; in series [1] (setting [7]), 2.702; in series [1] (RP-8F254 plates, acetone–TRIS buffer (pH 7.4), listed as flupentixol), 2.702±0.228; in series [1] (setting [8]), −1.165; in series [1] (RP-8F254 plates, acetonitrile–TRIS buffer (pH 7.4), listed as flupentixol), -1.165±0.108. In addition, the RMW is recorded as 2.468 in series [1] (setting [9]); 2.468±0.246 in series [1] (RP-18F254 plates, 1,4-dioxane–TRIS buffer (pH 7.4), listed as flupentixol); 2.762 in series [1] (setting [10]); 2.762±0.175 in series [1] (RP-18F254 plates, acetone–TRIS buffer (pH 7.4), listed as flupentixol); −1.058 in series [1] (setting [11]); -1.058±0.077 in series [1] (RP-18F254 plates, acetonitrile–TRIS buffer (pH 7.4), listed as flupentixol). In addition, the logPexp in series [2] is given as 4.51.
`OCCN1CCN(CCCN2c3ccccc3Sc3ccc(C(F)(F)F)cc32)CC1` [Fluphenazine, fluphenazine]: the RMW was 2.653 in series [1] (setting [3]); 2.653±0.058 in series [1] (RP-2F254 plates, 1,4-dioxane–TRIS buffer (pH 7.4), listed as fluphenazine); 2.834 in series [1] (setting [4]); 2.834±0.219 in series [1] (RP-2F254 plates, acetone–TRIS buffer (pH 7.4), listed as fluphenazine); −0.777 in series [1] (setting [5]); -0.777±0.074 in series [1] (RP-2F254 plates, acetonitrile–TRIS buffer (pH 7.4), listed as fluphenazine). Further, the RMW was 2.340 in series [1] (setting [6]); 2.340±0.230 in series [1] (RP-8F254 plates, 1,4-dioxane–TRIS buffer (pH 7.4), listed as fluphenazine); 2.591 in series [1] (setting [7]); 2.591±0.210 in series [1] (RP-8F254 plates, acetone–TRIS buffer (pH 7.4), listed as fluphenazine); −1.230 in series [1] (setting [8]); -1.230±0.164 in series [1] (RP-8F254 plates, acetonitrile–TRIS buffer (pH 7.4), listed as fluphenazine). Besides, the RMW in series [1] (setting [9]) is 2.454; in series [1] (RP-18F254 plates, 1,4-dioxane–TRIS buffer (pH 7.4), listed as fluphenazine), 2.454±0.279; in series [1] (setting [10]) it was 2.702; in series [1] (RP-18F254 plates, acetone–TRIS buffer (pH 7.4), listed as fluphenazine), 2.702±0.189; in series [1] (setting [11]) it was −0.995; in series [1] (RP-18F254 plates, acetonitrile–TRIS buffer (pH 7.4), listed as fluphenazine) it was -0.995±0.098. In addition, in series [2], the logPexp is recorded as 4.36.
In the case of `CN1CCN(CCCN2c3ccccc3Sc3ccc(C(F)(F)F)cc32)CC1` [Trifluoperazine, trifluoperazine], the RMW in series [1] (setting [3]) is 3.333; in series [1] (RP-2F254 plates, 1,4-dioxane–TRIS buffer (pH 7.4), listed as trifluoperazine) it was 3.333±0.328; in series [1] (setting [4]), 3.348; in series [1] (RP-2F254 plates, acetone–TRIS buffer (pH 7.4), listed as trifluoperazine), 3.348±0.250; in series [1] (setting [5]) it was −0.568; in series [1] (RP-2F254 plates, acetonitrile–TRIS buffer (pH 7.4), listed as trifluoperazine) it was -0.568±0.088. In addition, the RMW in series [1] (setting [6]) was 2.547; in series [1] (RP-8F254 plates, 1,4-dioxane–TRIS buffer (pH 7.4), listed as trifluoperazine) it was 2.547±0.277; in series [1] (setting [7]), 2.754; in series [1] (RP-8F254 plates, acetone–TRIS buffer (pH 7.4), listed as trifluoperazine), 2.754±0.209; in series [1] (setting [8]), −1.023; in series [1] (RP-8F254 plates, acetonitrile–TRIS buffer (pH 7.4), listed as trifluoperazine), -1.023±0.082. The RMW in series [1] (setting [9]) is 2.580; in series [1] (RP-18F254 plates, 1,4-dioxane–TRIS buffer (pH 7.4), listed as trifluoperazine) it was 2.580±0.271; in series [1] (setting [10]) it was 2.714; in series [1] (RP-18F254 plates, acetone–TRIS buffer (pH 7.4), listed as trifluoperazine), 2.714±0.200; in series [1] (setting [11]) it was −0.810; in series [1] (RP-18F254 plates, acetonitrile–TRIS buffer (pH 7.4), listed as trifluoperazine), -0.810±0.074. Further, in series [2], the logPexp is 5.03.
With `CN(C)CCCN1c2ccccc2Sc2ccc(C(F)(F)F)cc21` [Triflupromazine, triflupromazine], the RMW in series [1] (setting [3]) is listed as 2.890; in series [1] (RP-2F254 plates, 1,4-dioxane–TRIS buffer (pH 7.4), listed as triflupromazine), 2.890±0.232; in series [1] (setting [4]), 3.046; in series [1] (RP-2F254 plates, acetone–TRIS buffer (pH 7.4), listed as triflupromazine) it was 3.046±0.271; in series [1] (setting [5]), −0.405; in series [1] (RP-2F254 plates, acetonitrile–TRIS buffer (pH 7.4), listed as triflupromazine), -0.405±0.166. The RMW was 2.153 in series [1] (setting [6]); 2.153±0.213 in series [1] (RP-8F254 plates, 1,4-dioxane–TRIS buffer (pH 7.4), listed as triflupromazine); 2.690 in series [1] (setting [7]); 2.690±0.232 in series [1] (RP-8F254 plates, acetone–TRIS buffer (pH 7.4), listed as triflupromazine); −0.334 in series [1] (setting [8]); -0.334±0.019 in series [1] (RP-8F254 plates, acetonitrile–TRIS buffer (pH 7.4), listed as triflupromazine). For the same compound, the RMW was 2.342 in series [1] (setting [9]); 2.342±0.261 in series [1] (RP-18F254 plates, 1,4-dioxane–TRIS buffer (pH 7.4), listed as triflupromazine); 2.718 in series [1] (setting [10]); 2.718±0.168 in series [1] (RP-18F254 plates, acetone–TRIS buffer (pH 7.4), listed as triflupromazine); −0.361 in series [1] (setting [11]); -0.361±0.084 in series [1] (RP-18F254 plates, acetonitrile–TRIS buffer (pH 7.4), listed as triflupromazine).
For `OCCN1CCN(CC/C=C2/c3ccccc3Sc3ccc(Cl)cc32)CC1` [Zuclopenthixol, zuclopenthixol], the RMW in series [1] (setting [3]) is listed as 2.459; in series [1] (RP-2F254 plates, 1,4-dioxane–TRIS buffer (pH 7.4), listed as zuclopenthixol), 2.459±0.130; in series [1] (setting [4]), 2.529; in series [1] (RP-2F254 plates, acetone–TRIS buffer (pH 7.4), listed as zuclopenthixol), 2.529±0.252; in series [1] (setting [5]), 0.582±0.089; in series [1] (setting [6]), 1.981. In addition, the RMW in series [1] (RP-8F254 plates, 1,4-dioxane–TRIS buffer (pH 7.4), listed as zuclopenthixol) is reported as 1.981±0.189; in series [1] (setting [7]), 2.206; in series [1] (RP-8F254 plates, acetone–TRIS buffer (pH 7.4), listed as zuclopenthixol), 2.206±0.207; in series [1] (setting [8]) it was −1.206; in series [1] (RP-8F254 plates, acetonitrile–TRIS buffer (pH 7.4), listed as zuclopenthixol), -1.206±0.139; in series [1] (setting [9]) it was 2.110. For the same compound, the RMW in series [1] (RP-18F254 plates, 1,4-dioxane–TRIS buffer (pH 7.4), listed as zuclopenthixol) is 2.110±0.176; in series [1] (setting [10]), 2.218; in series [1] (RP-18F254 plates, acetone–TRIS buffer (pH 7.4), listed as zuclopenthixol) it was 2.218±0.238; in series [1] (setting [11]), 2.411; in series [1] (RP-18F254 plates, acetonitrile–TRIS buffer (pH 7.4), listed as zuclopenthixol), 2.411±0.454.
